From patent US20100105764A1 (priority 2006, published 2010)
Like-named read-outs stand apart in the source and are kept apart here.

How the values were obtained:
E1-STS [1] = target: T1, E1-STS (Homo sapiens, UniProt P08842); set-up: E1-STS activity in intact MCF-7 cells; endogenous in cells; host or cells: MCF-7 cells (intact); conditions: intact MCF-7 cells, at 0.1 nM; cited from earlier work
T1 sequence (P08842 22-583): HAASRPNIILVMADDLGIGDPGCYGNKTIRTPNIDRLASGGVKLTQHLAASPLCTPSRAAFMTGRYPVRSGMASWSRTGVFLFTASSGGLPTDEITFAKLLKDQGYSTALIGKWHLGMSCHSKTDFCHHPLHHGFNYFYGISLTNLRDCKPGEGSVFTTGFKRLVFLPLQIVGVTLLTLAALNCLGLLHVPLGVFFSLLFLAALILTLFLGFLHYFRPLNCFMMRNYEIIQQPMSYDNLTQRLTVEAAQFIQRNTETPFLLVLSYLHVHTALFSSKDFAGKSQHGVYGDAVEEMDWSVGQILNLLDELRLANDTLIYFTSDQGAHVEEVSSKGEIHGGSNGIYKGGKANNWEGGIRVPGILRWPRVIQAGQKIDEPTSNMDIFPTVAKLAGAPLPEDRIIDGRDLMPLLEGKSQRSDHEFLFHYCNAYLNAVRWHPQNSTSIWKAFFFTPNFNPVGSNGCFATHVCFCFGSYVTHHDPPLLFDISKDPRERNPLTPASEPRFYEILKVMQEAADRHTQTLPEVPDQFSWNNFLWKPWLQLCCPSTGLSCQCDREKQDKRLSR

[2] = rats; cited from earlier work
E1-STS [3] = target: T1, E1-STS; conditions: cited from earlier work
[4] = target: T2, dehydroepiandrosterone sulphatase (DHEA-STS) (Homo sapiens, UniProt P08842); conditions: cited from earlier work
T2 sequence (P08842 22-583): T1 sequence (P08842 22-583)

[5] = assay type: in vivo, mice
Procedure: (§1) Ovariectomised, athymic female MF-1 nude mice (nu/nu) (age 6-8 weeks) were obtained from Harlan Olac. Twenty four hours before the inoculation of MCF-7 cells animals were injected s.c. with androstenedione (A4) or estradiol sulfate (E2S). On the day of inoculation MCF-7 cells (50 μl in Matrigel) were injected s.c. into the flanks of mice. After cell inoculation mice were injected with A4 and E2S and received another injection of these steroids 24 h later. Mice then received A4 plus E2S 3 times per week until the end of the study. When tumours had reached approximately 80 mm^3 dosing was initiated with compounds being administered orally (100 μl; vehicle 10% THF: 90% propylene glycol). Tumour measurements and the weight of animals were recorded weekly.
(§2) This study was similar to the previous one with the exception that MCF-7STS or MCF-7AROM cells (1×10^7) were inoculated into different flanks of the same animals. The doses of A4 and E2S were increased to 100 μg for each compound.

[6] = Phase I trial: serum steroid levels; assay type: in vivo; conditions: postmenopausal women with breast cancer
From the text: The assay for the determination of androstenedione, testosterone, E1 and E2 was the gas chromatographic tandem mass spectroscopic method of Wang et al., (2005). Recombinant cell ultra-sensitive bioassay for measurements of estrogens in postmenopausal women J Clin Endocrinol Metab 90: 1407-1413, 2005.
In addition to the aromatase pathway for the synthesis of estrogens in postmenopausal women, the sulfatase route is also important of the formation of steroids with potent estrogenic properties. Steroid sulfatase (STS) is responsible for the hydrolysis of estrone sulfate (E1S) and dehydroepiandrosterone sulfate (DHEAS) to estrone (E1) and DHEA respectively, which can be reduced in the body to estradiol (E2) and androstenediol (Adiol), both of which have potent estrogenic properties (FIGS. 3 & 4; reviewed in Reed et al., Endocrine Reviews, 256:171-202, 2005). […] This provides evidence for an aromatase independent pathway.

STS = target: T3, STS (Homo sapiens, UniProt P08842); test: Phase I trial: STS activity in peripheral and tumour tissues; assay type: in vivo; conditions: postmenopausal women with breast cancer
T3 construct: STS activity in peripheral and tumour tissues in postmenopausal women with breast cancer; from tissue; host or cells: peripheral and breast tumour tissues of patients
T3 sequence (P08842 22-583): T1 sequence (P08842 22-583)
From the text: In addition to the aromatase pathway for the synthesis of estrogens in postmenopausal women, the sulfatase route is also important of the formation of steroids with potent estrogenic properties. Steroid sulfatase (STS) is responsible for the hydrolysis of estrone sulfate (E1S) and dehydroepiandrosterone sulfate (DHEAS) to estrone (E1) and DHEA respectively, which can be reduced in the body to estradiol (E2) and androstenediol (Adiol), both of which have potent estrogenic properties (FIGS. 3 & 4; reviewed in Reed et al., Endocrine Reviews, 256:171-202, 2005).

[7] = system: tumours derived from MCF-7AROM cells; test: Study 2: growth of tumours derived from MCF-7AROM cells in nude mice; assay type: in vivo; conditions: Study 2, A4 plus E2S stimulated; oral administration; letrozole 0.1 mg/kg; FIGS. 9-11
Procedure: as §1
(§3) MCF-7 cells were routinely cultured in RPMI with 10% FCS. The cDNAs for either the aromatase or STS were cloned into the pCl-Neo vector which contains the neomycin resistant gene and transfected into MCF-7 cells. Stable clones were selected using G418 and cell lines established and evaluated for enzyme expression and activity.
as §2

[8] = system: tumours derived from MCF 7STS cells; assay type: in vivo; conditions: initial experiments, nude mice, FIG. 5
[9] = system: tumours derived from MCF-7STS cells; test: Study 2: growth of tumours derived from MCF-7STS cells in nude mice; assay type: in vivo; conditions: Study 2, A4 plus E2S stimulated; oral administration; letrozole 0.1 mg/kg; FIGS. 9-11
Procedure: as §1, §3, §2

[10] = system: MCF-7STS+MCF-7AROM tumours; test: Study 1: MCF-7STS+MCF-7AROM tumour growth in nude mice; assay type: in vivo; conditions: Study 1, A4 plus E2S stimulated; oral; letrozole 0.1 mg/kg, STX213 10 mg/kg p.o. 5/7 per week; FIG. 6
Procedure: as §1, §3
(§4) For this study MCF-7 cells over-expressing aromatase or STS were mixed and inoculated (5×10^6 cells) in Matrigel into the flanks of nude mice. A similar number of MCF-7WT cells were inoculated into the other flank. […]

MCF-7WT tumours = test: Study 1: MCF-7WT tumour growth in nude mice; assay type: in vivo; conditions: Study 1, A4 plus E2S stimulated; oral; letrozole 0.1 mg/kg, STX213 10 mg/kg p.o. 5/7 per week; FIG. 6
Procedure: as §1, §3, §4

[11] = assay type: in vivo; conditions: for toxic effects (animal growth): Study 1, FIG. 7
Procedure: as §1
For this study MCF-7 cells over-expressing aromatase or STS were mixed and inoculated (5×10^6 cells) in Matrigel into the flanks of nude mice. A similar number of MCF-7WT cells were inoculated into the other flank. For this study growth of tumours was stimulated by s.c. injection of A4 (50 μg) and E2S (50 μg) in 50 μl vehicle.

Row | Compound | mode of E1-STS inhibition (inactivation) (E1-STS [3]) | growth of tumours derived from MCF-7AROM cells [7] | growth of tumours derived from MCF 7STS cells [8] | growth of tumours derived from MCF-7STS cells [9] | growth of MCF-7STS+MCF-7AROM tumours [10] | growth of MCF-7WT tumours (MCF-7WT tumours) | toxic effects (animal growth) [11] | further results
1 | CC12CCC3c4ccc(OS(N)(=O)=O)cc4CCC3C1CCC2=O (stereo not shown) [EMATE, oestrone-3-sulphamate] | time- and concentration-dependent manner | – | – | – | – | – | – | inhibition of E1-STS activity (E1-STS [1]): more than 99%; effect on memory [2]: memory enhancing effect; inhibition of DHEA-STS [4]: also inhibits
2 | NS(=O)(=O)Oc1ccc2c3c(c(=O)oc2c1)CCCCC3 [STX64] | – | significant inhibition | could be inhibited | significant inhibition | – | – | – | tolerability, effects on animal weight ([5]; Study 2, FIG. 12): well tolerated with no effects on animal weight; levels of androstenedione [6]: reduced; levels of testosterone [6]: reduced; serum oestrogen concentrations [6]: reducing serum oestrogen concentrations; STS activity in peripheral and tumour tissues (STS): effectively blocked STS activity
3 | CCCN1C(=O)CC2C3CCc4cc(OS(N)(=O)=O)ccc4C3CC[C@]2(C)C1=O (stereo partly shown) [STX213] | – | – | could be inhibited | – | significantly reduced the growth | significantly reduced the growth | Neither STX213 nor letrozole appeared to have any toxic effects | toxicity as shown by body weight ([11]; Study 1, at the dose tested, FIG. 7): devoid of any toxicity
4 | N#Cc1ccc(C(c2ccc(C#N)cc2)n2cncn2)cc1 [letrozole, reference compound] | – | significant inhibition | – | did not affect the growth | some reduction of tumour growth | some reduction of tumour growth | Neither STX213 nor letrozole appeared to have any toxic effects | tolerability, effects on animal weight ([5]; mouse, in vivo): well tolerated with no effects on animal weight
5 | oestrone-3-N-sulphamate | weaker non-time-dependent inactivators | – | – | – | – | – | – | –
6 | oestrone-3-S-sulphamate | weaker non-time-dependent inactivators | – | – | – | – | – | – | –
